In patent US20250215012A1, “IKZF2 DEGRADERS AND USES THEREOF” (REGENTS OF THE UNIVERSITY OF MICHIGAN, priority 2022, published 2025):

Columns and labels:
IKZF1 = IKZF1 (Homo sapiens (Human), UniProt Q13422+Q96SW2); assay: IKZF1 HiBit Assay (HEK293T Flp-in-HiBiT-IKZF1 stable cell line); format: cell-based; settings: HEK293T Flp-in-HiBiT-IKZF1 cells, 6 hrs; for DC50: read-out: IKZF1 HiBit degradation DC50; for Dmax: HEK-293T, read-out: IKZF1 HiBit degradation Dmax
Method: The HiBiT protein tagging system was applied to modified Cells: modified HEK293T Flp-in-HiBiT-IKZF1 stable cell line (polyclone) via a CRISPR/Cas9—mediated insertion of the HiBiT peptide tag (Promega™) to the N-terminus of the IKZF2 gene locus (Neon™ transfection system).
Test compound from 10 mM and reference compound (CC-92480 from 50 mM and I-57 from 10 mM) are diluted at 3 folds for 11 doses. 25 nL of diluted compound is transferred to assay plates (Corning3571) using ECHO550, the final DMSO concentration @0.1%. The cells are seeded in 3000/[…]/well to compound plates. The plates are incubated for 6 hrs in TC incubator. The amount of Nano-Glo® HiBiT lytic reagent needed to perform the desired experiments is calculated. The Nano-Glo® HiBiT lytic reagent is brought to room temperature. The LgBiT protein is diluted to 1:100 and the Nano-Glo® HiBiT lytic substrate is brought to 1:50 into an appropriate volume of room temperature Nano-Glo® HiBiT lytic buffer. […] of the detection reagent (or without LgBiT) is dispensed to corresponding well according to the layout. The plate is shaked for 10 mins at room temperature. After briefly centrifuging, the plate is read on Envision. At the indicated timepoints, the Nano-Glo® HiBiT lytic detection system (Promega™) was utilized for detecting bioluminescence of the HiBiT tag in treated cells: abundance of the tag is proportionate to the level of luminescence. Following normalization to DMSO, dose-response curves were plotted (GraphPad Prism) to determine the concentration points at which 50% of HiBiT-Ikaros degradation was achieved by each compound. The extent of degradation (range of luminescence) from the highest to lowest concentration points was calculated to determine the Dm.

[1] = target: His tagged CRBN+DDB−DLS7+CXU4 (Homo sapiens (Human), UniProt Q96SW2); assay: IC50 Measurements for Binding to CRBN/DDBI (HTRF); settings: Cy5-labeled Thalidomide probe, one hour incubation
His tagged CRBN+DDB−DLS7+CXU4, sequence (Q96SW2 whole entry): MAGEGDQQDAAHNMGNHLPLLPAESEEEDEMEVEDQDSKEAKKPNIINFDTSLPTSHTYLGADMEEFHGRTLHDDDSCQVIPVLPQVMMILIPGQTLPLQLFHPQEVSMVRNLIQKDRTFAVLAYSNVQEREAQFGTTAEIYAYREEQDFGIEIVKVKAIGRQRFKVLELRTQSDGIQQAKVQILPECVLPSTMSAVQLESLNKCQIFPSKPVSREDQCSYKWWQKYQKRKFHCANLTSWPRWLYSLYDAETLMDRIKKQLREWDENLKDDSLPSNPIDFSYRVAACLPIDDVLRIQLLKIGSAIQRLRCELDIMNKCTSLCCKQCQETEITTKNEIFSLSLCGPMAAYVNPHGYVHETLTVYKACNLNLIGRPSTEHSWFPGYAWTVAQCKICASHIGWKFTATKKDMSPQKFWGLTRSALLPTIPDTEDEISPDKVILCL
His tagged CRBN+DDB−DLS7+CXU4, sequence (Q16531 whole entry partner): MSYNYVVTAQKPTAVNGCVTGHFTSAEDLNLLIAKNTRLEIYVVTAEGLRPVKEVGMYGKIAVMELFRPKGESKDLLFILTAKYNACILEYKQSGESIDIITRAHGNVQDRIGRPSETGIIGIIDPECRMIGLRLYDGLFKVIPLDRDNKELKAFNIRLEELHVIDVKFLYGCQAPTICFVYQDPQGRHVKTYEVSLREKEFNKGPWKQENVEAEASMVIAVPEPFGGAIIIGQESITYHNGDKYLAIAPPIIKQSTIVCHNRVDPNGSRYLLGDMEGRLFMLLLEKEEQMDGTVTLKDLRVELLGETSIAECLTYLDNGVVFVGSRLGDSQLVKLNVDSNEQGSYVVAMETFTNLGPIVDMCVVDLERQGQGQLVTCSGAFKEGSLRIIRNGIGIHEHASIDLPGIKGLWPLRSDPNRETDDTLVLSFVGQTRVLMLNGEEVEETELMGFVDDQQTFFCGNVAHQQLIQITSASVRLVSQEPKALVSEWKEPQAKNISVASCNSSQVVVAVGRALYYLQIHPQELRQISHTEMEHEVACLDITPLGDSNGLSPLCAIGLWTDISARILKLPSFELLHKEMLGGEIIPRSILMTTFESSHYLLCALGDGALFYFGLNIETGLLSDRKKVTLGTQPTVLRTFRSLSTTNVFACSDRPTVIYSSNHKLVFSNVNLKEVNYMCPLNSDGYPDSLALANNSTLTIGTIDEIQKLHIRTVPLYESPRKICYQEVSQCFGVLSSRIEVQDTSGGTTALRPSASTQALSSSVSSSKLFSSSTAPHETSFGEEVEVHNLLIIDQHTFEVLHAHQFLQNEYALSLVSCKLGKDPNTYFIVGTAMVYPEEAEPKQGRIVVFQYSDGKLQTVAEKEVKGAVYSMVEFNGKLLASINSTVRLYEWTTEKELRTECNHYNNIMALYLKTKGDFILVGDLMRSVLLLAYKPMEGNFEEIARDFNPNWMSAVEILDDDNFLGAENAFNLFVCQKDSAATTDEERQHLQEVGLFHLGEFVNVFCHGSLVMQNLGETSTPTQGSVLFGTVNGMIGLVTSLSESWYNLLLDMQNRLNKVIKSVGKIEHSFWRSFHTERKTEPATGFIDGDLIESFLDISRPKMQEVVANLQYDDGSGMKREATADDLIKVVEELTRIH

IKZF2 = IKZF2 (Homo sapiens (Human), UniProt Q96SW2+Q9UKS7); assay: IKZF2 HiBit Assay (HEK293T Flp-in-HiBiT cells); format: cell-based; settings: HEK293T Flp-in-HiBiT cells, 6 hrs; for DC50: read-out: IKZF2 HiBit degradation DC50; for Dmax: HEK-293T, read-out: IKZF2 HiBit degradation Dmax
IKZF2, sequence (Q9UKS7 whole entry): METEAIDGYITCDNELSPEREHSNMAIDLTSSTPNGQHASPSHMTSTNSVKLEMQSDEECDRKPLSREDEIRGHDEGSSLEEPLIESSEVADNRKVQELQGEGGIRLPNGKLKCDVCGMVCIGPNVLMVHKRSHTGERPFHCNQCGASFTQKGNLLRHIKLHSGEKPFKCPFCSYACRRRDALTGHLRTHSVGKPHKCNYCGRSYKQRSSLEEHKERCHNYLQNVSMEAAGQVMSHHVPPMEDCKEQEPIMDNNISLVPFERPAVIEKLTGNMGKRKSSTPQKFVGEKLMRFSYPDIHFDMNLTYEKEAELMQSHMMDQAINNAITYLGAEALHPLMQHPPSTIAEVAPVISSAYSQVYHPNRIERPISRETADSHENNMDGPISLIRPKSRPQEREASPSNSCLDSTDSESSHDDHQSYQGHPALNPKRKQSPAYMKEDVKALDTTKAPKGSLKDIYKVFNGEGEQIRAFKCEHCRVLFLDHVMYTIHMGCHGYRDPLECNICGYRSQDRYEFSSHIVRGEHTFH
IKZF2, sequence (Q96SW2 whole entry): as the sequence (Q96SW2 whole entry) above
IKZF2, sequence (Q16531 whole entry partner): as the sequence (Q16531 whole entry partner) above
Method: The HiBiT protein tagging system was applied to modified HEK293T Flp-in-HiBiT cells (polyclone) via a CRISPR/Cas9—mediated insertion of the HiBiT peptide tag (Promega™) to the N-terminus of the IKZF2 gene locus (Neon™ transfection system). Test and reference compounds are diluted from 1 mM at 3 folds for 11 doses. 25 nL of diluted compound is transferred to assay plates (Corning3570) using ECHO550, the final DMSO concentration @0.1%. The cells are seeded in 3000/[…]/well to compound plates. It is then incubated for 6 hrs in TC incubator. The amount of Nano-Glo® HiBiT lytic reagent needed to perform the desired experiments is calculated. The Nano-Glo® HiBiT lytic reagent is brought to room temperature. The LgBiT protein is diluted to 1:100 and the Nano-Glo® HiBiT lytic substrate is diluted to 1:50 into an appropriate volume of room temperature Nano-Glo® HiBiT lytic buffer. […] of the detection reagent (or without LgBiT) is dispensed to corresponding well according to the layout. The plate is then shaked for 10 mins at room temperature. After briefly centrifuge, the plate is read on Envision. At the indicated timepoints, the Nano-Glo® HiBiT lytic detection system (Promega™) was utilized for detecting bioluminescence of the HiBiT tag in treated cells: abundance of the tag is proportionate to the level of luminescence. Following normalization to DMSO, dose-response curves were plotted (GraphPad Prism) to determine the concentration points at which 50% of HiBiT-Helios degradation was achieved by each compound. The extent of degradation (range of luminescence) from the highest to lowest concentration points was calculated to determine the Dmax.

IKZF1, sequence (Q13422 whole entry): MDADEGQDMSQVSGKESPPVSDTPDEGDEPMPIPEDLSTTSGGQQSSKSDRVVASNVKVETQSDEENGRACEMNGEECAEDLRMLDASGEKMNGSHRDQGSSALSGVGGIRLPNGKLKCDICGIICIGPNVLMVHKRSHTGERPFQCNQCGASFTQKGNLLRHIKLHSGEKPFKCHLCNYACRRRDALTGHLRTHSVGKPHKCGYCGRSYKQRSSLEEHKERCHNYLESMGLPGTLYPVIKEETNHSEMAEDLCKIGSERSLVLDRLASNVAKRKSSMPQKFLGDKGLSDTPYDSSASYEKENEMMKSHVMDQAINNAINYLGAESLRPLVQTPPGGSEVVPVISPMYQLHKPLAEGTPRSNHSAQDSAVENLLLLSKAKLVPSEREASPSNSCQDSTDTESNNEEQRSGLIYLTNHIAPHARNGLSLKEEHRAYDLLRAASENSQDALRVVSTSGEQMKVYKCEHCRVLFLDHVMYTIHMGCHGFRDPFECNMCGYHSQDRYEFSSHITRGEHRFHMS
IKZF1, sequence (Q96SW2 whole entry): as the sequence (Q96SW2 whole entry) above
IKZF1, sequence (Q16531 whole entry partner): as the sequence (Q16531 whole entry partner) above

Row | Compound | DC50 (IKZF1) [nM] | Dmax (IKZF1) [%] | IC50 [1] [nM] | DC50 (IKZF2) [nM] | Dmax (IKZF2) [%] | IKZF1 HiBit degradation Dmax (IKZF1) | IKZF2 HiBit degradation Dmax (IKZF2)
1 | Cc1cc2c(c3c1C(=O)N([C@H]1CCC(=O)NC1=O)C3)OCC21CCN(Cc2cccc(-c3cnn(C)c3)c2)CC1 [Compound B20, (S)-3-(5-methyl-1′-(3-(1-methyl-1H-pyrazol-4-yl)benzyl)-6-oxo-6,8-dihydro-2H,7H-spiro[furo[2,3-e]isoindole-3,4′-piperidin]-7-yl)piperidine-2,6-dione] | > 1000 | < 20 | 500 to 1000 | > 1000 | 20 to 40 | – | –
2 | O=C1CC[C@H](N2Cc3c(ccc4c3OCC43CCN(Cc4cccc5cn[nH]c45)CC3(F)F)C2=O)C(=O)N1 (some centres unmarked) [Compound B44] | 100 to 1000 | 20 to 40 | < 100 | 1 to 10 | > 80 | – | –
3 | Cn1ncc2cccc(CN3CCC4(COc5c4ccc4c5CN([C@H]5CCC(=O)NC5=O)C4=O)C(F)(F)C3)c21 (stereo partly drawn) [Compound B45, (3S)-3-(3′,3′-difluoro-1′-((1-methyl-1H-indazol-7-yl)methyl)-6-oxo-6,8-dihydro-2H,7H-spiro[furo[2,3-e]isoindole-3,4′-piperidin]-7-yl)piperidine-2,6-dione] | 10 to 100 | 20 to 40 | 100 to 500 | 1 to 10 | > 80 | – | –
4 | O=C1CC[C@H](N2Cc3c(ccc4c3OCC43CCN(Cc4ccc5c(c4)C(=O)NC5)CC3(F)F)C2=O)C(=O)N1 (stereo partly drawn) [Compound B31, (3S)-3-(3′,3′-difluoro-6-oxo-1′-((3-oxoisoindolin-5-yl)methyl)-6,8-dihydro-2H,7H-spiro[furo[2,3-e]isoindole-3,4′-piperidin]-7-yl)piperidine-2,6-dione] | > 1000 | < 20 | 100 to 500 | 1 to 10 | 60 to 80 | – | –
5 | O=C1CC[C@H](N2Cc3c(ccc4c3OCC43CCN(Cc4cnn(S(=O)(=O)c5ccccc5Cl)c4)CC3(F)F)C2=O)C(=O)N1 (stereo partly drawn) [Compound B29, (3S)-3-(1′-((1-((2-chlorophenyl)sulfonyl)-1H-pyrazol-4-yl)methyl)-3′,3′-difluoro-6-oxo-6,8-dihydro-2H,7H-spiro[furo[2,3-e]isoindole-3,4′-piperidin]-7-yl)piperidine-2,6-dione] | 1 to 10 | > 40 | < 100 | < 1 | > 80 | – | –
6 | O=C1CC[C@H](N2Cc3c4c(cc(Cl)c3C2=O)C2(CCN(Cc3ccccc3)CC2)CO4)C(=O)N1 [Compound B17, (S)-3-(1′-benzyl-5-chloro-6-oxo-6,8-dihydro-2H,7H-spiro[furo[2,3-e]isoindole-3,4′-piperidin]-7-yl)piperidine-2,6-dione] | > 1000 | < 20 | 500 to 1000 | > 1000 | < 20 | – | –
7 | (3S)-3-(1′-((1H-indazol-6-yl)methyl)-3′,3′-difluoro-3-oxo-1,3,7,8-tetrahydro-2H-spiro[cyclopenta[e]isoindole-6,4′-piperidin]-2-yl)piperidine-2,6-dione [Compound B33] | > 1000 | – | 100 to 500 | 1 to 10 | – | C (C: <20%) | B (B: 60-80%)
8 | O=C1CCC(N2Cc3c(ccc4c3OCC43CCN(Cc4ccccc4)CC3O)C2=O)C(=O)N1 (centres unmarked) [Compound B22, 3-(1′-benzyl-3′-hydroxy-6-oxo-6,8-dihydro-2H,7H-spiro[furo[2,3-e]isoindole-3,4′-piperidin]-7-yl)piperidine-2,6-dione] | > 1000 | < 20 | 100 to 500 | 10 to 100 | 20 to 40 | – | –
9 | O=C1CC[C@H](N2Cc3c(ccc4c3OCC43CCN(Cc4cnn(-c5ccc(Cl)cc5)c4)CC3(F)F)C2=O)C(=O)N1 (stereo partly drawn) [Compound B30, (3S)-3-(1′-((1-(4-chlorophenyl)-1H-pyrazol-4-yl)methyl)-3′,3′-difluoro-6-oxo-6,8-dihydro-2H,7H-spiro[furo[2,3-e]isoindole-3,4′-piperidin]-7-yl)piperidine-2,6-dione] | > 1000 | < 20 | 1000 to 5000 | 1 to 10 | 60 to 80 | – | –
10 | O=C1CC[C@H](N2Cc3c(ccc4c3OCC43CCN(Cc4cc(-c5ccc(Cl)cc5)ns4)CC3)C2=O)C(=O)N1 [Compound B3, (S)-3-(1′-((3-(4-chlorophenyl)isothiazol-5-yl)methyl)-6-oxo-6,8-dihydro-2H,7H-spiro[furo[2,3-e]isoindole-3,4′-piperidin]-7-yl)piperidine-2,6-dione] | > 1000 | < 20 | < 100 | 10 to 100 | 60 to 80 | – | –
11 | [2H]C([2H])(c1cccc(-c2cnn(C(F)F)c2)c1)N1CCC2(CC1)COc1c2ccc2c1CN([C@H]1CCC(=O)NC1=O)C2=O [Compound B10, (S)-3-(1′-((3-(1-(difluoromethyl)-1H-pyrazol-4-yl)phenyl)methyl-d2)-6-oxo-6,8-dihydro-2H,7H-spiro[furo[2,3-e]isoindole-3,4′-piperidin]-7-yl) piperidine-2,6-dione] | > 1000 | < 20 | 100 to 500 | 1 to 10 | 60 to 80 | – | –
12 | O=C1CC[C@H](N2Cc3c(ccc4c3OCC43CCN(Cc4cnn(CC5CCOCC5)c4)CC3)C2=O)C(=O)N1 [Compound B6, (S)-3-(6-oxo-1′-((1-((tetrahydro-2H-pyran-4-yl)methyl)-1H-pyrazol-4-yl)methyl)-6,8-dihydro-2H,7H-spiro[furo[2,3-e]isoindole-3,4′-piperidin]-7-yl)piperidine-2,6-dione] | > 1000 | < 20 | – | 1 to 10 | 60 to 80 | – | –
13 | Cn1cc(-c2cccc(CN3CCC4(CC3)CNc3c4ccc4c3CN([C@H]3CCC(=O)NC3=O)C4=O)c2)cn1 [Compound B57, (S)-3-(1-(3-(1-methyl-1H-pyrazol-4-yl)benzyl)-6′-oxo-1′,2′,6′,8′-tetrahydro-7′H-spiro[piperidine-4,3′-pyrrolo[3,4-g]indol]-7′-yl)piperidine-2,6-dione] | > 1000 | < 20 | – | 10 to 100 | 60 to 80 | – | –
14 | O=C1CCC(N2Cc3c(ccc4c3OCC43CCN(Cc4ccccc4)CC3(F)F)C2=O)C(=O)N1 (centres unmarked) [Compound B25, 3-(1′-benzyl-3′,3′-difluoro-6-oxo-6,8-dihydro-2H,7H-spiro[furo[2,3-e]isoindole-3,4′-piperidin]-7-yl)piperidine-2,6-dione] | 1 to 10 | 20 to 40 | – | 1 to 10 | 60 to 80 | – | –
15 | O=C1CC[C@@H](N2Cc3c(ccc4c3OCC43CCN(Cc4cccc(-c5cnn(C6COC6)c5)c4)CC3)C2=O)C(=O)N1 [Compound B15, (R)-3-(1′-(3-(1-(oxetan-3-yl)-1H-pyrazol-4-yl)benzyl)-6-oxo-6,8-dihydro-2H,7H-spiro[furo[2,3-e]isoindole-3,4′-piperidin]-7-yl)piperidine-2,6-dione] | > 1000 | < 20 | – | 1 to 10 | > 80 | – | –
